Laboratory results reported in patent EP0937727A1, “Soluble crystalline cefuroxime axetil” (priority 1998, dated 1999).
Where “and” joins values, the source holds several entries; their conditions need not be identical. Equal entries are not always repeated.

Columns and labels:
[1] = Dissolution (solubility) test of the active ingredient from standardised tablets according to USP 23, p. 316; format: physicochemical; details: test gemäß USP 23, nach 45 Minuten
Description: Im Anschluß beschreibt USP 23, Seite 316 einen Test für die Bestimmung der Bioverfügbarkeit dieses, aus beiden Diastereomeren etwa im Verhältnis von 1:1 bestehenden amorphen Produktes. Hierzu wird die Löslichkeit des Wirkstoffes aus einer standardisierten Tablettenformulierung in […] bestimmt. Zuläßlich sind solche Produkte, bei denen in 15 Minuten mindestens 60% des angegebenen Gehaltes an Wirkstoff und innerhalb von 45 Minuten mindestens 75% des angegebenen Wirkstoffes aufgelöst sind.
Das Produkt gemäß EP-A1 0 757 991 läßt sich nach der dortigen Vorschrift erzeugen. Die Löslichkeit des Wirkstoffes (aus der tablettierten Form) wie im folgenden beschrieben und bestimmt nach dem Standardverfahren gem. USP 23, S. 316, erreicht jedoch nach 45 Minuten nur etwas mehr als 40 %.
Dann wurden mit dem so gewonnenen Wirkstoff einerseits, dem erfindungsgemäßen Wirkstoff andererseits Tabletten hergestellt, und zwar nach folgendem Verfahren: 305 mg kristallines Cefuroxim axetil wurden mit 50 mg Ac disol, 50 mg Avicel pH 105, 7,5 mg Aerosil 200, 2,5 mg Magnesiumstearat und 7,5 Explotab trocken vermischt. Das Gemisch wurde trocken verpreßt und granuliert. Das so erhaltene Granulat wurde mit 7,5 mg Explotab und 7,5 mg Natriumlaurylsulfat vermischt und das erhaltene Gemisch wurde dann zu Tabletten gepreßt.
Mit den so erhaltenen Tabletten wurde jeweils der Löslichkeitstest gemäß USP 23 durchgeführt. […]

[2] = known crystalline form of the prior art; compared with the prescribed minimum (60% in 15 Minuten, 75% in 45 Minuten); cited from earlier work

SMILES: CO/N=C(\C(=O)N[C@@H]1C(=O)N2C(C(=O)OC(C)OC(C)=O)=C(COC(N)=O)CS[C@H]12)c1ccco1 (stereo partly drawn) [Produkt gemäß EP-A1 0 757 991, (R,S)-Cefuroxim axetil]
- Löslichkeit (Grad der Auflösung des Wirkstoffes) [1]: > 40%

SMILES: CO/N=C(\C(=O)N[C@@H]1C(=O)N2C(C(=O)OC(C)OC(C)=O)=C(COC(N)=O)CS[C@H]12)c1ccco1 (stereo partly drawn) [kristalline (R,S)-Cefuroxim axetil, (R,S)-Cefuroxim axetil]
- Löslichkeit im Test gemäß USP 23 [2]: bei weitem nicht die vorgeschriebene Mindestlöslichkeit

SMILES: CO/N=C(\C(=O)N[C@@H]1C(=O)N2C(C(=O)OC(C)OC(C)=O)=C(COC(N)=O)CS[C@H]12)c1ccco1 (single isomer, unassigned) [Beispiel 2]
- Löslichkeit (Grad der Auflösung des Wirkstoffes) ([1]; listed as kristalline Form von (R,S)-Cefuroxim axetil gemäß USP 23): > 50% and ~75%
